Entries after “also recorded” stand apart in the source; their conditions may differ.
How the values were obtained:
[1] = tested on: GluR1 subunit of AMPA receptors; assay: Surface GluR1 ELISA in rat cortical cells; format: cell-based; settings: TRKB inhibitors
Procedure: Briefly, the MG87.TRKB cells or primary cortical cells from rat or mouse embryos, cultivated in clear bottom 96-well plates (ViewPlate 96, Perkin Elmer), were washed with ice-cold PBS and fixed with 100μl of 4% PFA per well. […] Following washing, the samples were incubated with HRP-conjugated anti-goat or anti-rabbit IgG (1:5000 in blocking buffer) for 1h at RT. The cells were washed 4x with 200μl of PBS for 10 min each. Finally, the chemiluminescent signal generated by reaction with ECL was analyzed in a plate reader.

[2] = target: TRKB (Mus musculus, UniProt P15209); assay: Cell-free ligand binding assay on immobilised TRKB from HEK293T lysates; parameters: wild-type GFP-tagged full length TRKB or the GFP-tagged Y433F TRKB mutant; host or cells: HEK293T; settings: for displacement of biotinylated FLX from TRKB: biotinylated FLX 1 μM
Chain of TRKB (P15209 32-821): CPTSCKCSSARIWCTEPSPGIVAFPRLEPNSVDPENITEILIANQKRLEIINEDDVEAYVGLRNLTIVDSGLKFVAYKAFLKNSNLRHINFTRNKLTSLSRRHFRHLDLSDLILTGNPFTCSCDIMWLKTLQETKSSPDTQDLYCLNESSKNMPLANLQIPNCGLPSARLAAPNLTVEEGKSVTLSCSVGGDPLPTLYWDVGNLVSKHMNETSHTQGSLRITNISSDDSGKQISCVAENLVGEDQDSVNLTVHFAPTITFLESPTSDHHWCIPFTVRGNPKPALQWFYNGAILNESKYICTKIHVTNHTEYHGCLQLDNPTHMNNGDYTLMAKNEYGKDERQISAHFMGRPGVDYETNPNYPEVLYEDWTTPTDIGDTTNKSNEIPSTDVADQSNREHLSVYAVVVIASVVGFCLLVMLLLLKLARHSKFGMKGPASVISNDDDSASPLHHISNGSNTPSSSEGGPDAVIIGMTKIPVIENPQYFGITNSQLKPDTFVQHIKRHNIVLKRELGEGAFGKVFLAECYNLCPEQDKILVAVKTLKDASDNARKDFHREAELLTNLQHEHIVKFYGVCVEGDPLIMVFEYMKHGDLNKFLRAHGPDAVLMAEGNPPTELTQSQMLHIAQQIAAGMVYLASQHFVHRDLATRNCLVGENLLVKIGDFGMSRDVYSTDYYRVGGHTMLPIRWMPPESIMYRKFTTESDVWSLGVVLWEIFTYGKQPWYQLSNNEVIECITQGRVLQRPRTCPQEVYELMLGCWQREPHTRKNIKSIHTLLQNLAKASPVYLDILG
Procedure: (§1) The cell-free assays (binding assays) were performed in white 96-well plates, based on the protocol used for western-blotting or ELISA ([Baeza-Raja et al., 2016]; [Das et al., 2015]). The plates were precoated with anti-GFP, anti-FLAG, anti-TRK or anti-TRKB antibody (1:1000) in carbonate buffer (pH 9.8), ON at 4°C. Following blocking with 3% BSA in PBS buffer (2 h at RT), 120 ug of total protein from each sample (of lysates from HEK293T cells transfected to overexpress GFP-TRKB.wt or GFP-TRKB.Y433F) were added and incubated overnight at 4°C under agitation. […] The luminescence was determined via HRP-conjugated streptavidin (1:10000, 1h, RT) activity reaction with ECL by a plate reader. The luminescence signal from blank wells (containing all the reagents but the sample lystates, substituted by the blocking buffer) was used as background. The specific signal was then calculated by subtracting the values of blank wells from the values of the samples with matched concentration of the biotinylated ligand. For Figure 2E, the precipitated TRKB.wt or Y433F was incubated with tritiated imipramine (0-30μM) and the radioactive emission of the ligand was determined by scintillation (OptiPhase Supermix cocktail: #1200-439; MicroBeta2, Perkin-Elmer). The scintillation signal from blank wells was used as background, and the specific signal was then calculated by subtracting the values of blank wells from the values of the samples with matched concentration of the radioactive ligand.

[3] = tested on: TRKB autophosphorylation (TRKB:pY); assay: TRKB:pY ELISA in cultured cortical cells; format: cell-based, rat; settings: for rescue of BDNF-induced pTRKB response under high CHOL: cholesterol 50 μM, drug 10 μM 15 min, BDNF 10 ng/ml 15 min
Procedure: (§2) The TRKB:pY (phosphorylated TRKB), TRKB:PLC-γ1, PLC-γ1:pTRKB.Y816 interactions and were determined by ELISA, based on the general method described in literature ([Antila et al., 2014]; [Fred et al., 2019]), with minor adjustments. Briefly, white 96-well plates (OptiPlate 96F-HB, Perkin Elmer) were coated with capturing anti-TRKB or PLC-γ1 antibody (1:1000) in carbonate buffer (pH = 9.8) overnight (ON) at 4°C. Following a blocking step with 2%BSA in TBS-T (2 h, RT), samples were incubated ON at 4°C. The incubation with antibody against pTRKB.Y816, PLC-γ1 or pY (1:2000, ON, 4°C) was followed by HRP-conjugated anti-Rb IgG (1:5000, 2h, RT) or HRP-conjugated streptavidin (1:10000, 2h, RT). Finally, the chemiluminescent signal generated by the reaction with ECL was analyzed in a plate reader (Varioskan Flash, Thermo Scientific).

[4] = target: T1, TRKB.Y433F (Mus musculus, UniProt P15209, Y433F); assay: Cell-free ligand binding assay, TRKB.Y433F mutant; settings: tritiated imipramine, biotinylated R,R-HNK
T1 construct: wild-type GFP-tagged full length TRKB or the GFP-tagged Y433F TRKB mutant; host or cells: HEK293T
T1 sequence (P15209 32-821 Y433F): as the sequence (P15209 32-821) above, with Y402F counted along it
Procedure: as §1

[5] = tested on: TRKB:PLC-γ1 interaction; assay: TRKB:PLC-γ1 interaction ELISA in cortical cells; format: cell-based, rat
Procedure: as §2

[6] = tested on: TRKB:PLC-γ1 interaction; assay: TRKB:PLC-γ1 interaction ELISA in MG87 cells expressing TRKB; format: cell-based, mouse; settings: bCDX 2 mM/30 min pre-treatment
Procedure: The cell line NIH 3T3 (mouse fibroblasts) stably transfected to express TRKB or TRKA (MG87.TRKB or MG87.TRKA, respectively) were used for in vitro assays ([Antila et al., 2014]), N2A and HEK293T cells were used to overexpress GFP-tagged TRKB for binding assays. The cells were maintained at 5% CO2, 37°C in Dulbecco’s Modified Eagle’s Medium (DMEM, containing 10% fetal calf serum, 1% penicillin/streptomycin, 1% L-glutamine, and, in the case of MG87.TRKB cells, with […] of G418). The cell lines used in the present study were not authenticated or genotyped for sex.
as §2, with “The incubation with antibody against pTRKB.Y816, PLC-γ1 or pY (1:2000, ON, 4°C) was followed by HRP-conjugated anti-Rb IgG (1:5000, 2h, RT) or HRP-conjugated streptavidin (1:10000, 2h, RT).” left out

[7] = tested on: surface TRKB; assay: Surface TRKB ELISA in primary cortical neurons; format: cell-based, rat
Procedure: The surface levels of TRKB were also determined by ELISA ([Zheng et al., 2008]). Briefly, the MG87.TRKB cells or primary cortical cells from rat or mouse embryos, cultivated in clear bottom 96-well plates (ViewPlate 96, Perkin Elmer), were washed with ice-cold PBS and fixed with 100μl of 4% PFA per well. After washing with PBS and blocking with PBS containing 5% nonfat dry milk and 5% BSA, the samples were incubated with primary anti-TRKB antibody (R&D Systems, #AF1494, 1:1000 in blocking buffer) or anti-GluR1 subunit of AMPA receptors (CST, #8850, 1:2000 in blocking buffer) ON at 4°C. Following washing, the samples were incubated with HRP-conjugated anti-goat or anti-rabbit IgG (1:5000 in blocking buffer) for 1h at RT. The cells were washed 4x with 200μl of PBS for 10 min each. Finally, the chemiluminescent signal generated by reaction with ECL was analyzed in a plate reader.

[8] = target: GFP-tagged TRKB mutated at Y433 (GFP-TRKB.Y433F) (UniProt P15209); assay: ELISA; cell-free ligand binding assay in white 96-well plates: GFP-TRKB from 120 ug HEK293T lysate captured on antibody-coated wells (anti-GFP or anti-TRKB), washed, ligand added; read-out by HRP-streptavidin and ECL as told for biotinylated ligands; the conditions for BDNF are not told
Chain of GFP-tagged TRKB mutated at Y433 (GFP-TRKB.Y433F) (P15209 32-821 Y433F): as the sequence (P15209 32-821) above, with Y402F counted along it

[9] = target: GFP-tagged TRKB wild type (GFP-TRKB.wt), neurotrophic tyrosine kinase receptor 2 (UniProt P15209); assay: as above
Chain of GFP-tagged TRKB wild type (GFP-TRKB.wt), neurotrophic tyrosine kinase receptor 2 (P15209 32-821): as the sequence (P15209 32-821) above

O=C(Nc1ccccc1C(=O)NC1CCCCNC1=O)c1cc2ccccc2s1 (stereo not drawn) [ANA12]
effect on FLX- and R,R-HNK-induced increase in surface GluR1 [1]: prevented

N[C@]1(c2ccccc2Cl)CCC[C@H](O)C1=O [S,S-HNK, 2S,6S-HNK]
displacement of biotinylated FLX from TRKB [2]: weak, if any, displacement
displacement of bound R,R-HNK from TRKB ([2]; biotinylated R,R-HNK 1 μM): failed to displace

CN(C)CCCN1c2ccccc2Sc2ccc(Cl)cc21 [chlorpromazine]
rescue of BDNF-induced pTRKB response under high CHOL [3]: failed to rescue
displacement of biotinylated FLX from TRKB [2]: weak, if any, displacement; also recorded: failed to displace

CN(C)CCOC(c1ccccc1)c1ccccc1 [diphenhydramine]
displacement of biotinylated FLX from TRKB [2]: weak, if any, displacement

CN[C@]1(c2ccccc2Cl)CCCCC1=O [esketamine, S-ketamine]
Ki [2]: 2860 nM

OCCN1CCN(CCC=C2c3ccccc3Sc3ccc(C(F)(F)F)cc32)CC1 [flupenthixol]
rescue of BDNF-induced pTRKB response under high CHOL [3]: failed to rescue

CN(C)CCCN1c2ccccc2CCc2ccccc21 [imipramine]
affinity to TRKB.Y433F compared with wild-type TRKB [4]: much lower than to the wild-type TRKB
TRKB interaction with PLC-γ1 ([5]; rat cortical cells): increased TRKB interaction with PLC-γ1
Ki [2]: 1030 nM

CC(C)NCC(O)c1ccc(O)c(O)c1 (stereo not drawn) [isoproterenol]
displacement of biotinylated FLX from TRKB [2]: weak, if any, displacement

COC(=O)[C@@]1(O)C[C@H]2O[C@]1(C)n1c3ccccc3c3c4c(c5c6ccccc6n2c5c31)C(=O)NC4 [k252a]
effect on FLX- and R,R-HNK-induced increase in surface GluR1 [1]: prevented

O=C(NCCN1CCOCC1)c1ccc(Cl)cc1 [moclobemide]
Ki [2]: 1510 nM

O=c1[nH]c2ccccc2n1C1CCN(CCCC(c2ccc(F)cc2)c2ccc(F)cc2)CC1 [pimozide]
rescue of BDNF-induced pTRKB response under high CHOL [3]: failed to rescue

COc1ccc(C(CN(C)C)C2(O)CCCCC2)cc1 (stereo not drawn) [venlafaxine]
Ki [2]: 2080 nM
displacement of biotinylated FLX from TRKB [2]: readily displaced

OC[C@H]1O[C@@H]2O[C@H]3[C@H](O)[C@@H](O)[C@@H](O[C@H]4[C@H](O)[C@@H](O)[C@@H](O[C@H]5[C@H](O)[C@@H](O)[C@@H](O[C@H]6[C@H](O)[C@@H](O)[C@@H](O[C@H]7[C@H](O)[C@@H](O)[C@@H](O[C@H]8[C@H](O)[C@@H](O)[C@@H](O[C@H]1[C@H](O)[C@H]2O)O[C@@H]8CO)O[C@@H]7CO)O[C@@H]6CO)O[C@@H]5CO)O[C@@H]4CO)O[C@@H]3CO [βCDX, beta-cyclodextrin]
effect on block of BDNF-induced pTRKB by high cholesterol ([3]; bCDX 30 min, cholesterol 100 μM/15 min, BDNF 10 ng/ml/15 min): reverses the block
effect on BDNF-induced increase in TRKB-PLC-γ1 interaction ([5]; bCDX 2 mM, 30 min): prevents
effect on antidepressant-induced TRKB:PLC-γ1 interaction ([5]; bCDX 2 mM/30 min pretreatment, FLX, imipramine, KET, R,R-HNK): blocked
blockade of CHOL effect on TRKB:PLC-γ1 interaction [6]: blocked
effect on fluoxetine-induced increase in TRKB surface exposure [7]: blocked

brain-derived neurotrophic factor (BDNF), biotinylated rh-BDNF (ligand)
Kd [8]: 0.0029 nM
Kd [9]: 0.0031 nM

From article PMC7938888, “Antidepressant drugs act by directly binding to TRKB neurotrophin receptors” (Cell, 2021)
